{
  "source": "patent US10232012B2",
  "about": "(INDUSTRY-ACADEMIC COOPERATION FOUNDATION, YONSEI UNIVERSITY, priority 2016, dated 2019)",
  "key": {"[1]": {"system": "ScN2a cells"}, "[2]": {"molecular_target": "PrP^SC in ScN2a cells (Mus musculus, UniProt P04925)", "sequence (P04925 23-230 limits assumed)": "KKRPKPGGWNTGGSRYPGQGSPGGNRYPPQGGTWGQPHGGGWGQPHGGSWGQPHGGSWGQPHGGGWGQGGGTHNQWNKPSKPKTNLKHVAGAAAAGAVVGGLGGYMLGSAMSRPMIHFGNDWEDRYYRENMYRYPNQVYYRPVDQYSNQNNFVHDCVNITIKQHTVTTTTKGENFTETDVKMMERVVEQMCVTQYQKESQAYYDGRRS", "type": "cell-based", "settings": "for anti-prion activity at 30 nM: pH 7.4"}, "[3]": {"test": "in vitro", "settings": "mouse, ScN2a cells, pH 7.4, cell survival rate"}, "[4]": {"type": "physicochemical", "settings": "pH 3"}, "[5]": {"type": "physicochemical"}},
  "note": "Where two headings read alike, the source gives them in different places. Ends that are not written are not given here.",
  "data": [
    {"compound": "N=C(N)NCCC[C@H](NC(=O)CNC(=O)CCCCCN)C(=O)N[C@@H](CCCCN)C(=O)N[C@@H](CCCCN)C(=O)N[C@@H](CCCNC(=N)N)C(=O)N[C@@H](CCCNC(=N)N)C(=O)N[C@@H](CCC(N)=O)C(=O)N[C@@H](CCCNC(=N)N)C(=O)N[C@@H](CCCNC(=N)N)C(=O)N[C@@H](CCCNC(=N)N)C(=O)N1CCC[C@H]1C(=O)N1CCC[C@H]1C(=O)N[C@@H](CCC(N)=O)C(N)=O", "note": "[Comparative Example 1, reference compound]", "values": [
      {"measurement": "cytotoxicity", "setting": "[1]", "result": "remarkably low cytotoxicity"}
    ]},
    {"compound": "H-GRKKRRQRRRPPQ-GSGG-FKFEFKFEFKFE-NH2 [Example 1]", "values": [
      {"measurement": "anti-prion activity (PK-resistant PrP^SC level by western blot)", "setting": "[2]", "result": "gradual decrease in the PrP^SC concentration as its concentration is increased"},
      {"measurement": "concentration at which anti-prion activity is exhibited", "setting": "[2]", "result": "≥ 100", "unit": "nM"}
    ]},
    {"compound": "H-RR-ahx-FKFEFKFEFKFE-NH2 [Example 2]", "values": [
      {"measurement": "anti-prion activity (PK-resistant PrP^SC level by western blot)", "setting": "[2]", "result": "shows anti-prion activity, although weaker than that of the fusion peptide of Example 1"}
    ]},
    {"compound": "H-RRRRRRRRRRRRRR-GSGG-FKFEFKFEFKFE-NH2 [Example 4]", "values": [
      {"measurement": "anti-prion activity at 30 nM", "setting": "[2]", "result": "remarkably high anti-prion activity"}
    ]},
    {"compound": "H-RRRRRRRRRRRRRRR-GSGG-FKFEFKFEFKFE-NH2 [Example 5]", "values": [
      {"measurement": "anti-prion activity at 30 nM", "setting": "[2]", "result": "remarkably high anti-prion activity"}
    ]},
    {"compound": "RRRRRRRRRRRRGSGGFKFEFKFEFKFE-NH2 [Example 3]", "values": [
      {"measurement": "viability", "setting": "[3]", "result": "≥ 70", "unit": "%"},
      {"measurement": "anti-prion activity (PK-resistant PrP^SC level by western blot)", "setting": "[2]", "result": "remarkably higher anti-prion activity than the peptide consisting only of arginine residues of the same number (R12)"},
      {"measurement": "anti-prion activity at 10 nM", "setting": "[2]", "result": "remarkably superior anti-prion activity"},
      {"measurement": "fold decrease of anti-prion activity compared to R12-β UNS", "setting": "[2]", "result": "≥ 14.5", "unit": "times"},
      {"measurement": "cytotoxicity", "setting": "[1]", "result": "significantly lower toxicity than the peptide of Comparative Example 3"},
      {"measurement": "diameter of vesicular nanostructure", "setting": "[4]", "result": "20-90 nm"},
      {"measurement": "height of vesicular nanostructure, on average", "setting": "[4]", "result": "1-20 nm"},
      {"measurement": "height of vesicular nanostructure, specifically", "setting": "[4]", "result": "8-16 nm"},
      {"measurement": "width of vesicular nanostructure, on average", "setting": "[4]", "result": "50-100 nm"},
      {"measurement": "width of vesicular nanostructure, specifically", "setting": "[4]", "result": "70-90 nm"},
      {"measurement": "zeta potential difference, acidic condition (pH 2-5.5) versus neutral condition", "setting": "[5]; pH 2", "result": "+14 to 18 mV"},
      {"measurement": "zeta potential", "setting": "[5]; pH 3", "result": "+40 mV"},
      {"measurement": "zeta potential", "setting": "[5]; pH 5", "result": "+38 mV"},
      {"measurement": "zeta potential", "setting": "[5]; pH 7", "result": "+24 mV"},
      {"measurement": "zeta potential", "setting": "[5]; pH 11", "result": "+30 mV"}
    ]},
    {"compound": "RRRRRRRRRRRRGSGGFKFEFKFEFKFE-NH2 [R12-β SPN]", "values": [
      {"measurement": "anti-prion activity (PK-resistant PrP^SC level by western blot)", "setting": "[2]", "result": "comparable to that of the peptide of Example 1"},
      {"measurement": "cytotoxicity", "setting": "[1]", "result": "moderate cytotoxicity"}
    ]},
    {"compound": "RRRRRRRRRRRRGSGGFKFEFKFEFKFE-NH2 [R12-β UNS]", "values": [
      {"measurement": "anti-prion activity (PK-resistant PrP^SC level by western blot)", "setting": "[2]", "result": "comparable to that of the peptide Comparative Example 3"},
      {"measurement": "fold higher anti-prion activity than R12-β SPN (fibrillar nanostructure)", "setting": "[2]", "result": 14.5, "unit": "times"},
      {"measurement": "cytotoxicity at 10 μM", "setting": "[1]; pH 7.4", "result": "low toxicity"}
    ]}
  ]
}
